Experimental data: patent publication US10538555B2, “Macrocyclic inhibitors of the PD-1/PD-L1 and CD80(B7-1)/PD-L1 protein/protein interactions” (BRISTOL-MYERS SQUIBB COMPANY, priority 2014, dated 2020)
pIC50: −log10 of the molar value. Read-outs that look alike come from different tables or passages of the source. *1 amine or outer side, *2 acyl side, *3 side chain or, on linkers, in order; H or OH if unused. Where a SMILES comes first, the peptide text is derived from it. Bridges are numbered along the chain shown (N, C = ends). [ ]: non-standard residue; d: D form. ξ: configuration not given here. Trp(1-CH2COOH) = N[C@@H](Cc1cn(CC(=O)O)c2ccccc12)C(=O)O; Trp(βS-Me) = C[C@@H](c1c[nH]c2ccccc12)[C@H](N)C(=O)O; Phe(3,4,5-F3) = N[C@@H](Cc1cc(F)c(F)c(F)c1)C(=O)O; Phe(4-Cl) = N[C@@H](Cc1ccc(Cl)cc1)C(=O)O; d(cisHyp) = O=C(O)[C@H]1C[C@@H](O)CN1; NMeY = CN[C@@H](Cc1ccc(O)cc1)C(=O)O; Hyp = O=C(O)[C@@H]1C[C@@H](O)CN1; NMeF = CN[C@@H](Cc1ccccc1)C(=O)O; X1 = O=C([C@H]1COCCN1[*:1])[*:2]; NMeE = CN[C@@H](CCC(=O)O)C(=O)O; dHyp = O=C(O)[C@H]1C[C@H](O)CN1; NMehSer = CN[C@@H](CCO)C(=O)O; NMeNle = CCCC[C@H](NC)C(=O)O; Tle = CC(C)(C)[C@H](N)C(=O)O; hSer = N[C@@H](CCO)C(=O)O; NMeA = CN[C@@H](C)C(=O)O; Orn = NCCC[C@H](N)C(=O)O; dNMeA = CN[C@H](C)C(=O)O; Dab = NCC[C@H](N)C(=O)O; Dap = NC[C@H](N)C(=O)O; ξC = NC(CS)C(=O)O; Sar = CNCC(=O)O

Target: T1, Human PD-L1/PD-1 (Homo sapiens, UniProt Q9NZQ7)
T1 construct: TVMV protease cleavage site (C); made in house; host or cells: HEK293T cells
T1 sequence (Q9NZQ7 with tags, fused parts or gaps): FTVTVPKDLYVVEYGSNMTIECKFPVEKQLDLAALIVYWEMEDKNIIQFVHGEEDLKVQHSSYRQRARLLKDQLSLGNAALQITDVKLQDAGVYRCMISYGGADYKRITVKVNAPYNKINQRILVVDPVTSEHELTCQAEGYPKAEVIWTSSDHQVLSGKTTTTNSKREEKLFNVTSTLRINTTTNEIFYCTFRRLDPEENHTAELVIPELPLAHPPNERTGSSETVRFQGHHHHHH
Test: HTRF Human PD-L1/PD-1 binding assay (PD-1-Ig/PD-L1-His)
Conditions: PD-L1-His 10 nM, PD-1-Ig 20 nM
Summary of the method: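 Compound preincubated 15 min with PD-L1-His (10 nM final), then PD-1-Ig (20 nM final) added for 15 min in dPBS with 0.1% BSA and 0.05% Tween-20. Detection by Eu-cryptate anti-Ig (1 nM) and APC anti-His (20 nM) after 30 min; 665/620 nm HTRF ratio. Proteins expressed in HEK293T.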

[1] = class symbol, read-out: HTRF Human PD-L1/PD-1 Binding Assay IC50 Range

Row | SMILES | pIC50 [1] | pIC50 (read-out: HTRF Human PD-L1/PD-1 Binding Assay IC50)
1 | CCCC[C@H]1C(=O)N2CCC[C@@H]2C(=O)N[C@@H](CC(=O)O)C(=O)N[C@@H](C(C)C)C(=O)N(C)[C@@H](Cc2ccccc2)C(=O)N[C@@H](CCCN)C(=O)N2CCC[C@@H]2C(=O)N[C@@H](Cc2c[nH]c3ccccc23)C(=O)N[C@@H](Cc2ccc(O)cc2)C(=O)N[C@@H](CCO)C(=O)N[C@H](C(=O)NCC(N)=O)CSCC(=O)N[C@@H](Cc2cc(F)c(F)c(F)c2)C(=O)N(C)[C@@H](Cc2ccccc2)C(=O)N1C [Example 10175] ({CH2CO}-[Phe(3,4,5-F3)][NMeF][NMeNle][dP]DV[NMeF][Orn][dP]WY[hSer]CG-NH2; thioether N-13) | 8.00 to 9.00 | 
2 | CCCC[C@H]1C(=O)N2CCC[C@@H]2C(=O)N[C@@H](CC(=O)O)C(=O)N[C@@H](C(C)C)C(=O)N(C)[C@@H](Cc2ccccc2)C(=O)N[C@@H](CCN)C(=O)N2CCOC[C@@H]2C(=O)N[C@@H](Cc2c[nH]c3ccccc23)C(=O)N[C@@H](Cc2ccc(O)cc2)C(=O)N[C@@H](CCCN)C(=O)N[C@H](C(=O)NCC(N)=O)CSCC(=O)N[C@@H](Cc2cc(F)c(F)c(F)c2)C(=O)N(C)[C@@H](Cc2ccc(O)cc2)C(=O)N1C [Example 10625] ({CH2CO}-[Phe(3,4,5-F3)][NMeY][NMeNle][dP]DV[NMeF][Dab][X1]WY[Orn]CG-NH2; thioether N-13) | 7.00 to 8.00 | 
3 | CCCC[C@H]1C(=O)N(C)CC(=O)N[C@@H](CC(=O)O)C(=O)N[C@@H](C(C)C)C(=O)N(C)[C@@H](Cc2ccccc2)C(=O)N[C@@H](Cc2ccc(O)cc2)C(=O)N(C)CC(=O)N[C@@H]([C@@H](C)c2c[nH]c3ccccc23)C(=O)N[C@@H](Cc2ccc(O)cc2)C(=O)N[C@@H](CC(C)C)C(=O)N[C@H](C(=O)NCC(N)=O)CSCC(=O)N[C@@H](Cc2ccccc2)C(=O)N(C)[C@@H](Cc2ccccc2)C(=O)N1C [Example 10533] ({CH2CO}-F[NMeF][NMeNle][Sar]DV[NMeF]Y[Sar][Trp(βS-Me)]YLCG-NH2; thioether N-13) | 8.00 to 9.00 | 
4 | CCCC[C@H]1C(=O)N(C)[C@@H](CCCC)C(=O)N[C@@H](CC(C)C)C(=O)N[C@H](C(N)=O)CSCC(=O)N[C@@H](Cc2ccc(O)cc2)C(=O)N(C)[C@@H](C)C(=O)N[C@@H](CC(N)=O)C(=O)N2CCC[C@H]2C(=O)N[C@@H](CN)C(=O)N[C@@H](CC(C)C)C(=O)N2C[C@H](O)C[C@H]2C(=O)N[C@@H](Cc2c[nH]c3ccccc23)C(=O)N[C@@H](CCC(=O)O)C(=O)N[C@@H](Cc2cn(CC(=O)O)c3ccccc23)C(=O)N1C [Example 6203] ({CH2CO}-Y[NMeA]NP[Dap]L[Hyp]WE[Trp(1-CH2COOH)][NMeNle][NMeNle]LC-NH2; thioether N-14) | 8.00 to 9.00 | 
5 | CCCC[C@H]1C(=O)N(C)[C@@H](CCOC)C(=O)N[C@@H](CCC(=O)O)C(=O)N[C@H](C(=O)NCC(N)=O)CSCC(=O)N[C@@H](Cc2ccc(O)cc2)C(=O)N(C)[C@@H](C)C(=O)N[C@@H](CC(=O)O)C(=O)N2CCC[C@H]2C(=O)N[C@@H](Cc2c[nH]cn2)C(=O)N[C@@H](CCC(N)=O)C(=O)N2C[C@H](O)C[C@H]2C(=O)N[C@@H](Cc2c[nH]c3ccccc23)C(=O)N[C@@H](CO)C(=O)N[C@@H](Cc2c[nH]c3ccccc23)C(=O)N1C [Example 10142] ({CH2CO}-Y[NMeA]DPHQ[Hyp]WSW[NMeNle][NMehSer](Me)ECG-NH2; thioether N-14) | 7.00 to 8.00 | 
6 | CCCC[C@H]1C(=O)N(C)[C@@H](CCCC)C(=O)N[C@@H](CCCNC(=N)N)C(=O)N[C@H](C(=O)NCC(N)=O)CSCC(=O)N[C@@H](Cc2ccc(O)cc2)C(=O)N(C)[C@@H](C)C(=O)N[C@@H](CC(N)=O)C(=O)N2CCC[C@H]2C(=O)N[C@@H](CCN)C(=O)N[C@@H](CC(C)C)C(=O)N2C[C@H](O)C[C@H]2C(=O)N[C@@H](Cc2c[nH]c3ccccc23)C(=O)N[C@@H](C(C)(C)C)C(=O)N[C@@H](Cc2c[nH]c3ccccc23)C(=O)N1C [Example 11001] ({CH2CO}-Y[NMeA]NP[Dab]L[Hyp]W[Tle]W[NMeNle][NMeNle]RCG-NH2; thioether N-14) | 7.00 to 8.00 | 
7 | COCC[C@H]1C(=O)N2C[C@@H](O)C[C@@H]2C(=O)N[C@@H](CC(=O)O)C(=O)N[C@@H](C(C)C)C(=O)N(C)[C@@H](Cc2ccccc2)C(=O)N[C@@H](CC(=O)O)C(=O)N2CCOC[C@@H]2C(=O)N[C@@H](Cc2c[nH]c3ccccc23)C(=O)N[C@@H](Cc2ccc(O)cc2)C(=O)N[C@@H](CCCN)C(=O)N[C@H](C(=O)NCC(N)=O)CSCC(=O)N[C@@H](Cc2cc(F)c(F)c(F)c2)C(=O)N(C)[C@@H](Cc2ccccc2)C(=O)N1C [Example 9269] ({CH2CO}-[Phe(3,4,5-F3)][NMeF][NMehSer](Me)[dHyp]DV[NMeF]D[X1]WY[Orn]CG-NH2; thioether N-13) | 8.00 to 9.00 | 
8 | CCCC[C@H]1C(=O)N(C)[C@@H](CCCC)C(=O)N[C@@H](CCC(=O)O)C(=O)NC(C(=O)NCC(N)=O)CSCC(=O)N[C@@H](Cc2ccc(O)cc2)C(=O)N(C)[C@@H](C)C(=O)N[C@@H](CC(N)=O)C(=O)N2CCC[C@H]2C(=O)N[C@@H](CC(N)=O)C(=O)N[C@@H](CC(C)C)C(=O)N2C[C@H](O)C[C@H]2C(=O)N[C@@H](Cc2c[nH]c3ccccc23)C(=O)N[C@@H](CO)C(=O)N[C@@H](Cc2c[nH]c3ccccc23)C(=O)N1C (stereo partly drawn) [Example 9169] ({CH2CO}-Y[NMeA]NPNL[Hyp]WSW[NMeNle][NMeNle]E[ξC]G-NH2; thioether N-14) | 8.00 to 9.00 | 
9 | CCCC[C@H]1C(=O)N[C@@H](CN)C(=O)N[C@H](C(=O)NCC(N)=O)CSCC(=O)N[C@@H](Cc2ccc(O)cc2)C(=O)N(C)[C@@H](C)C(=O)N[C@@H](CC(N)=O)C(=O)N2CCC[C@H]2C(=O)N[C@@H](Cc2c[nH]cn2)C(=O)N[C@@H](CCC(=O)O)C(=O)N2C[C@H](O)C[C@H]2C(=O)N[C@@H](Cc2c[nH]c3ccccc23)C(=O)N[C@@H](CCN)C(=O)N[C@@H](Cc2c[nH]c3ccccc23)C(=O)N(C)[C@@H](CCC(=O)O)C(=O)N1C [Example 5152] ({CH2CO}-Y[NMeA]NPHE[Hyp]W[Dab]W[NMeE][NMeNle][Dap]CG-NH2; thioether N-14) | 7.00 to 8.00 | 
10 | CCCC[C@H]1C(=O)N2C[C@H](O)C[C@@H]2C(=O)N[C@@H](CC(=O)O)C(=O)N[C@@H](C(C)C)C(=O)N(C)[C@@H](Cc2ccccc2)C(=O)N[C@@H](CCC(=O)O)C(=O)N2C[C@H](O)C[C@@H]2C(=O)N[C@@H](Cc2c[nH]c3ccccc23)C(=O)N[C@@H](Cc2ccc(O)cc2)C(=O)N[C@@H](CCCN)C(=O)N[C@H](C(=O)NCC(N)=O)CSCC(=O)N[C@@H](Cc2cc(F)c(F)c(F)c2)C(=O)N(C)[C@@H](Cc2ccccc2)C(=O)N1C [Example 9332] ({CH2CO}-[Phe(3,4,5-F3)][NMeF][NMeNle][d(cisHyp)]DV[NMeF]E[d(cisHyp)]WY[Orn]CG-NH2; thioether N-13) | 7.00 to 8.00 | 
11 | CCCC[C@H]1C(=O)N2CCC[C@@H]2C(=O)N[C@@H](CO)C(=O)N[C@@H](C(C)C)C(=O)N(C)[C@@H](Cc2ccccc2)C(=O)N[C@@H](Cc2ccc(O)cc2)C(=O)N(C)CC(=O)N[C@@H](Cc2c[nH]c3ccccc23)C(=O)N[C@@H](Cc2ccc(O)cc2)C(=O)N[C@@H](CC(C)C)C(=O)N[C@H](C(=O)NCC(N)=O)CSCC(=O)N[C@@H](Cc2ccccc2)C(=O)N(C)[C@@H](Cc2ccccc2)C(=O)N1C [Example 10062] ({CH2CO}-F[NMeF][NMeNle][dP]SV[NMeF]Y[Sar]WYLCG-NH2; thioether N-13) | 7.00 to 8.00 | 
12 | CC(C)[C@@H]1NC(=O)[C@H](CCC(N)=O)NC(=O)[C@@H](C)N(C)C(=O)[C@H](C)N(C)C(=O)[C@H](Cc2ccccc2)N(C)C(=O)[C@H](Cc2cc(F)c(F)c(F)c2)NC(=O)CSC[C@@H](C(=O)NCC(N)=O)NC(=O)[C@H](CCCN)NC(=O)[C@H](Cc2ccc(O)cc2)NC(=O)[C@H](Cc2c[nH]c3ccccc23)NC(=O)[C@@H](C)N(C)C(=O)[C@H](Cc2ccc(O)cc2)NC(=O)[C@H](Cc2ccccc2)N(C)C1=O [Example 9196] ({CH2CO}-[Phe(3,4,5-F3)][NMeF][NMeA][dNMeA]QV[NMeF]Y[dNMeA]WY[Orn]CG-NH2; thioether N-13) |  | 8.35
13 | CCCC[C@H]1C(=O)N[C@@H](CC(N)=O)C(=O)N2CCC[C@H]2C(=O)N[C@@H](CO)C(=O)N[C@@H](CCO)C(=O)N2C[C@H](O)C[C@H]2C(=O)N[C@@H](Cc2c[nH]c3ccccc23)C(=O)N[C@@H](CCO)C(=O)N[C@@H](Cc2c[nH]c3ccccc23)C(=O)N(C)[C@@H](C)C(=O)N(C)[C@@H](C)C(=O)N[C@@H](CCCCN)C(=O)NC(C(=O)NCC(N)=O)CSCC(=O)N[C@@H](Cc2ccc(O)cc2)C(=O)N1C (stereo partly drawn) [Example 10217] ({CH2CO}-Y[NMeNle]NPS[hSer][Hyp]W[hSer]W[NMeA][NMeA]K[ξC]G-NH2; thioether N-14) | 5.00 to 6.00 | 
14 | CCCC[C@H]1C(=O)N(C)[C@@H](CCCC)C(=O)N[C@@H](CCCNC(=N)N)C(=O)N[C@H](C(=O)NCC(N)=O)CSCC(=O)N[C@@H](Cc2ccc(Cl)cc2)C(=O)N(C)[C@@H](C)C(=O)N[C@@H](CC(N)=O)C(=O)N2CCC[C@H]2C(=O)N[C@@H](Cc2cnc[nH]2)C(=O)N[C@@H](CCC(=O)O)C(=O)N2C[C@H](O)C[C@H]2C(=O)N[C@@H](Cc2c[nH]c3ccccc23)C(=O)N[C@@H](CO)C(=O)N[C@@H](Cc2c[nH]c3ccccc23)C(=O)N1C [Example 7080] ({CH2CO}-[Phe(4-Cl)][NMeA]NPHE[Hyp]WSW[NMeNle][NMeNle]RCG-NH2; thioether N-14) | 7.00 to 8.00 | 
15 | CCCC[C@H]1C(=O)N(C)[C@@H](CCCC)C(=O)N[C@@H](CN)C(=O)N[C@H](C(=O)NCC(N)=O)CSCC(=O)N[C@@H](Cc2ccc(O)cc2)C(=O)N(C)[C@@H](C)C(=O)N[C@@H](CC(=O)O)C(=O)N2CCC[C@H]2C(=O)N[C@@H](Cc2c[nH]cn2)C(=O)N[C@@H](CCC(N)=O)C(=O)N2C[C@H](O)C[C@H]2C(=O)N[C@@H](Cc2c[nH]c3ccccc23)C(=O)N[C@@H](CO)C(=O)N[C@@H](Cc2cn(CC(=O)O)c3ccccc23)C(=O)N1C [Example 5163] ({CH2CO}-Y[NMeA]DPHQ[Hyp]WS[Trp(1-CH2COOH)][NMeNle][NMeNle][Dap]CG-NH2; thioether N-14) | 8.00 to 9.00 | 
